≈ marks a conversion by molar mass, not a printed value.
Legend:
[1] = Acute toxicity (LD50); assay type: in vivo, male Wister rats; conditions: rat, in vivo, after 1 week
Experimental: Test compounds were dissolved in physiological saline solution just before their dosage and administered to male Wister rats, intraperitoneally, intravenously and orally. After 1 week, the LD50 of each compound was calculated from the mortality of the test animals by the Lichfield-Wilcoxon Method.
i.v.: intravenous administration

[2] = Diabetogenic activity (blood glucose concentration after intravenous administration); assay type: in vivo, male Wister rats
Experimental: 40-96 mg/kg of the test compounds were administered intravenously to starved male Wister rats weighing 240-260 g each, and the blood glucose concentrations of the test animals were estimated by the glucose exidase method [L. L. Saloman et al: Anal. Chem., 31 (1959), 453], in which test the compounds were dissolved in physiological saline solution just before administration. […]

[3] = system: leukemia L-1210; assay: Antitumor activity against leukemia L-1210 implanted in BDF1 mice (ILS, 60 days survivors); assay type: in vivo
Text: Test compounds were given to BDF1 mice 24 hrs after implantation of 10^6 cells of leukemia L-1210 in each animal, through single intraperitoneal administration, intraperitoneal administration for 5 successive days, single oral administration or oral administration for 5 successive days, whereupon the increase in life span (referred to as "ILS") and number of 60 days survivors of test animals were estimated, said test of antitumor activity being that according to the method of the National Cancer Center, Tokyo [A. Hoshi et al: Farmashia, 9 (1973), 464]. In the tests, the compounds were dissolved in physiological saline solution just before administration.
^a i.p.: intraperitoneal administration p.o: oral administration
D1 : single administration D1~5 : administration for 5
^b percentage calculated from mean survival time over control
^c survivors/six animals

[4] = known compounds, generally seen; cited from earlier work
[5] = Effect on respiration, blood pressure, heart rate and electrocardiogram; assay type: in vivo, Beagle dogs; conditions: dog, in vivo, iv; injected into brachial veins, anesthetized Beagle dogs; read-out: maximum dosage not effected on respiration, blood pressure, heart rate and electrocardiogram
Experimental: Beagle dogs of both sexes weighing about 10 kg were anesthetized with pentobarbital sodium (30 mg/kg, i.v.), and immobilized in the supine position. Test compounds dissolved in physiological saline solution were injected into the brachial veins of the animals and the arteries at cannulated positions were treated with heparin sodium as anticoagulant.
The respiration rate of each animal was estimated with a respirometer (Nihonkohden, RP-3) through a tracheal cannula, the blood pressure with an electro-haemodynamometer (Nihonkohden, MP-4T) attached surgically to the femoral artery, and the heart rate with a pulse-rate tachometer (Nihonkohden, RT-2) through the trigger pulse of the blood pressure.

[6] = Solubility in water at 25° C.; assay type: physicochemical; conditions: amount soluble in 1 ml water at 25° C.
[7] = Absorption and excretion of 14C-labelled compounds; assay type: in vivo, rats; conditions: for dose excreted in expiration: within 24 hours
Experimental: The carbon atom at the 2-position of the chloroethyl group (i.e. ClCH2 CH2 -) of 6DCNU and 6MCαG was labelled with radioactive ^14 C, and the absorption and excretion of these compounds were tested using rats.

O=NN(CCCl)C(=O)N[C@H]1C(O)O[C@H](CO)[C@@H](O)[C@@H]1O (stereo partly drawn) [DCNU, 1-(2-chloroethyl)-3-(D-glucopyranos-2-yl)-1-nitrosourea]
LD50 at 168 h ([1]; ip): 44 mg/kg | LD50 at 168 h ([1]; po): 1150 mg/kg | Blood Glucose Concentration ([2]; 40 mg/kg i.v., 0 hr after treatment): 67.5 mg/dL | Blood Glucose Concentration ([2]; 40 mg/kg i.v., 2 hr after treatment): 87.2 mg/dL | Blood Glucose Concentration ([2]; 40 mg/kg i.v., 4 hr after treatment): 74.6 mg/dL | Blood Glucose Concentration ([2]; 40 mg/kg i.v., 7 hr after treatment): 85.3 mg/dL | Blood Glucose Concentration ([2]; 40 mg/kg i.v., 10 hr after treatment): 110.2 mg/dL | Blood Glucose Concentration ([2]; 40 mg/kg i.v., 24 hr after treatment): 142.2 mg/dL | Blood Glucose Concentration ([2]; 40 mg/kg i.v., 48 hr after treatment): 229.4 mg/dL | Blood Glucose Concentration ([2]; 60 mg/kg i.v., 0 hr after treatment): 68.2 mg/dL | Blood Glucose Concentration ([2]; 60 mg/kg i.v., 2 hr after treatment): 88.4 mg/dL | Blood Glucose Concentration ([2]; 60 mg/kg i.v., 4 hr after treatment): 72.4 mg/dL | Blood Glucose Concentration ([2]; 60 mg/kg i.v., 7 hr after treatment): 92.1 mg/dL | Blood Glucose Concentration ([2]; 60 mg/kg i.v., 10 hr after treatment): 115.7 mg/dL | Blood Glucose Concentration ([2]; 60 mg/kg i.v., 24 hr after treatment): 162.6 mg/dL | Blood Glucose Concentration ([2]; 60 mg/kg i.v., 48 hr after treatment): 242.3 mg/dL | Blood Glucose Concentration ([2]; 80 mg/kg i.v., 0 hr after treatment): 70.5 mg/dL | Blood Glucose Concentration ([2]; 80 mg/kg i.v., 2 hr after treatment): 90.3 mg/dL | Blood Glucose Concentration ([2]; 80 mg/kg i.v., 4 hr after treatment): 68.6 mg/dL | Blood Glucose Concentration ([2]; 80 mg/kg i.v., 7 hr after treatment): 93.7 mg/dL | Blood Glucose Concentration ([2]; 80 mg/kg i.v., 10 hr after treatment): 123.5 mg/dL | Blood Glucose Concentration ([2]; 80 mg/kg i.v., 24 hr after treatment): 178.7 mg/dL | Blood Glucose Concentration ([2]; 80 mg/kg i.v., 48 hr after treatment): 264.8 mg/dL | ILS ([3]; 1.6 mg/kg/day, i.p. D1~5): > 143% | Survivors (60 days) ([3]; 1.6 mg/kg/day, i.p. D1~5): 1/6 | ILS ([3]; 1.6 mg/kg/day, p.o. D1~5): -10% | ILS ([3]; 3.2 mg/kg/day, i.p. D1~5): > 407% | Survivors (60 days) ([3]; 3.2 mg/kg/day, i.p. D1~5): 3/6 | ILS ([3]; 3.2 mg/kg/day, p.o. D1~5): 6% | ILS ([3]; 4.5 mg/kg/day, i.p. D1~5): > 406% | Survivors (60 days) ([3]; 4.5 mg/kg/day, i.p. D1~5): 3/6 | ILS ([3]; 6.3 mg/kg/day, i.p. D1): > 265% | Survivors (60 days) ([3]; 6.3 mg/kg/day, i.p. D1): 3/6 | ILS ([3]; 6.3 mg/kg/day, i.p. D1~5): > 622% | Survivors (60 days) ([3]; 6.3 mg/kg/day, i.p. D1~5): 5/6 | ILS ([3]; 6.3 mg/kg/day, p.o. D1~5): 13% | ILS ([3]; 9.0 mg/kg/day, i.p. D1~5): > 153% | Survivors (60 days) ([3]; 9.0 mg/kg/day, i.p. D1~5): 1/6 | ILS ([3]; 12.5 mg/kg/day, i.p. D1): > 418% | Survivors (60 days) ([3]; 12.5 mg/kg/day, i.p. D1): 4/6 | ILS ([3]; 12.5 mg/kg/day, p.o. D1~5): 13% | ILS ([3]; 25.0 mg/kg/day, i.p. D1): > 315% | Survivors (60 days) ([3]; 25.0 mg/kg/day, i.p. D1): 3/6 | ILS ([3]; 25.0 mg/kg/day, p.o. D1~5): 13% | ILS ([3]; 50.0 mg/kg/day, i.p. D1): -10% | ILS ([3]; 50.0 mg/kg/day, p.o. D1~5): 15% | ILS ([3]; 100.0 mg/kg/day, p.o. D1~5): 18% | ILS ([3]; 200.0 mg/kg/day, p.o. D1~5): -23% | antitumor activity in oral administration, in words ([3]; oral administration): no antitumor activity in oral administration | diabetogenic activity, decreasing order [4]: SZ>DCNU>GANU> 2MCαG≈6MCαG | NOAEL [5]: 20 mg/kg | solubility [6]: 40 mg/mL (≈ 128 mM)

CO[C@H]1O[C@H](CNC(=O)N(C[14CH2]Cl)N=O)[C@@H](O)[C@H](O)[C@H]1O [6MCαG-^14 C]
dose excreted in urine ([7]; within 12 hours after the dose): 50-60% | dose excreted in expiration [7]: 3-4% | dose excreted in faeces ([7]; within 96 hours): 5-6% | dose excreted in urine ([7]; within 96 hours after the dose): 80-90%

O=NN(C[14CH2]Cl)C(=O)NC[C@H]1OC(O)[C@H](O)[C@@H](O)[C@@H]1O (stereo partly drawn) [6DCNU-^14 C]
dose excreted in urine ([7]; within 12 hours after the dose): 65-70% | dose excreted in expiration [7]: 3-5% | dose excreted in faeces ([7]; within 72 hours): 10-15% | dose excreted in urine ([7]; within 72 hours after the dose): 75-80%

Reference: patent US4156777A, “Process for producing glucopyranose-nitrosourea compounds and novel compounds included therein” (Tokyo Tanabe Company, Limited, priority 1977, dated 1979)
